OC[C@@H](O)CN1CCN(c2ccccc2)CC1
solubility (mole fraction)
Conditions | 283.1 K | 288.1 K | 293.1 K | 298.1 K | 303.1 K | 308.1 K | 313.1 K | 318.1 K | 323.1 K
in ethyl acetate | 0.000375 | 0.000529 | 0.000655 | 0.000809 | 0.00104 | 0.00132 | 0.00172 | 0.00229 | 0.00299
in isobutanol | 0.000871 | 0.00116 | 0.00147 | 0.00194 | 0.00245 | 0.00311 | 0.00397 | 0.0052 | 0.00686
in isopentanol | 0.000649 | 0.000914 | 0.00126 | 0.00165 | 0.00209 | 0.00274 | 0.00358 | 0.00472 | 0.00611
in isopropanol | 0.000146 | 0.000195 | 0.000245 | 0.000302 | 0.000371 | 0.000462 | 0.00057 | 0.000705 | 0.000852
in isopropyl acetate | 0.000293 | 0.000371 | 0.000484 | 0.000609 | 0.000798 | 0.00102 | 0.00132 | 0.00172 | 0.00223
in n-butanol | 0.000527 | 0.00072 | 0.000956 | 0.00131 | 0.00175 | 0.00239 | 0.00318 | 0.00424 | 0.00579
in n-butyl acetate | 0.00032 | 0.000417 | 0.000551 | 0.000714 | 0.000937 | 0.00122 | 0.00156 | 0.00207 | 0.00266
in n-heptanol | 0.000771 | 0.00104 | 0.00135 | 0.0018 | 0.0023 | 0.00297 | 0.00381 | 0.00492 | 0.00628
in n-hexanol | 0.000816 | 0.00108 | 0.00139 | 0.00181 | 0.00235 | 0.00304 | 0.00393 | 0.00503 | 0.00651
in n-pentanol | 0.000634 | 0.000945 | 0.00128 | 0.00163 | 0.00217 | 0.00285 | 0.00372 | 0.00493 | 0.00646
in n-pentyl acetate | 0.000316 | 0.000391 | 0.000525 | 0.000678 | 0.000888 | 0.00114 | 0.0015 | 0.00194 | 0.0025
in n-propanol | 0.000721 | 0.000943 | 0.0012 | 0.00157 | 0.00207 | 0.00277 | 0.00369 | 0.00501 | 0.00656
in n-propyl acetate | 0.000351 | 0.000469 | 0.000613 | 0.000803 | 0.00103 | 0.00132 | 0.00173 | 0.00222 | 0.00293
